Here are results for 13 compounds from US12662489B2 (Sitryx Therapeutics Limited, priority 2023, dated 2026).

In assay [1] the target is T1, MTHFD2 recombinant human enzyme (Homo sapiens, UniProt P13995).
T1 sequence (P13995 36-350): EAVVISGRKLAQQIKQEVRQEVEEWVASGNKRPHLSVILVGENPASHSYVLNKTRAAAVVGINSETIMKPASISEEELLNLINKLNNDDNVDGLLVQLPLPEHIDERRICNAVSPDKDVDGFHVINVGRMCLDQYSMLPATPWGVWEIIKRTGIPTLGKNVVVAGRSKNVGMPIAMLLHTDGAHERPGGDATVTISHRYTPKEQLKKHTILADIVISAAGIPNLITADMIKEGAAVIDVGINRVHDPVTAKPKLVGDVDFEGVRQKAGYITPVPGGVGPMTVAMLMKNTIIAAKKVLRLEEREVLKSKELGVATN
Put plainly: MTHFD2 inhibition assay (NAD(P)H-Glo luminescence). The conditions noted are these: for MTHFD1/MTHFD2 IC50 ratio: selectivity of MTHFD2 inhibition over MTHFD1, band.

In a further assay the test system is human CD4+ T cells. The assay can be described thus: Human CD4+ T-cell proliferation assay (CFSE, CD3/28 beads). The conditions noted are these: read-out: Proliferation IC50.
The target in assay [2] is T2, MTHFD1 recombinant human enzyme (Homo sapiens, UniProt P11586).
T2 sequence (P11586 2-291 limits assumed): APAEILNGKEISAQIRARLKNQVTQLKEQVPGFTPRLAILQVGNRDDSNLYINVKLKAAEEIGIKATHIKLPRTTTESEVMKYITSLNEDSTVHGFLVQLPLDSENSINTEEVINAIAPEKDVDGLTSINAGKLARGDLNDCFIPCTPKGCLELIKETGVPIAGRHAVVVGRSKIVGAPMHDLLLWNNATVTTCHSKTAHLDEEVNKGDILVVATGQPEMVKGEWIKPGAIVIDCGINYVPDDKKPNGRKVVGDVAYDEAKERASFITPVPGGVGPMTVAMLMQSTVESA
The assay can be described thus: MTHFD1 inhibition assay (NAD(P)H-Glo luminescence). As to conditions: MTHFD1 IC50, recombinant human enzyme 200 nM, NADP, band.

Take `COC[C@H]1CN(c2cc(C)c3c4c(c(=O)oc3c2C)CN(C(=O)c2cc(N(C)C)c(C(=O)NS(=O)(=O)N3CC5(CCC5)C3)cc2F)CC4)CCN1C` [Example 253, (R)-N-((2-azaspiro[3.3]heptan-2-yl)sulfonyl)-2-(dimethylamino)-5-fluoro-4-(8-(3-(methoxymethyl)-4-methylpiperazin-1-yl)-7,10-dimethyl-5-oxo-1,3,4,5-tetrahydro-2H-chromeno[3,4-c]pyridine-3-carbonyl)benzamide]: the IC50 was 1 to 10 nM in assay [1], 10 to 30 nM with human CD4+ T cells and 100 to 1000 nM in assay [2]. In assay [1], the “MTHFD1/MTHFD2 IC50 ratio” value is on record as “J (>30)”.

For the compound `COC[C@H]1CN(c2cc(Cl)c3c4c(c(=O)oc3c2C)CN(C(=O)c2cc(F)c(C(=O)NS(=O)(=O)N3CCCC3)cc2C)CC4)CCN1C` [Example 310, (R)-4-(10-chloro-8-(3-(methoxymethyl)-4-methylpiperazin-1-yl)-7-methyl-5-oxo-1,3,4,5-tetrahydro-2H-chromeno[3,4-c]pyridine-3-carbonyl)-2-fluoro-5-methyl-N-(pyrrolidin-1-ylsulfonyl)benzamide], the IC50 lay in the range of 10 to 100 nM in assay [1], 30 to 100 nM in the assay on human CD4+ T cells and 1000 to 5000 nM in assay [2]. The “MTHFD1/MTHFD2 IC50 ratio” value in assay [1] was “J (>30)”.

Regarding `COC[C@H]1CN(c2cc(C)c3c4c(c(=O)oc3c2C)CN(C(=O)c2ccc(C(=O)NS(=O)(=O)N3CCCC3)c(OC(C)C)c2F)CC4)CCN1C` [Example 149, (R)-3-fluoro-2-isopropoxy-4-(8-(3-(methoxymethyl)-4-methylpiperazin-1-yl)-7,10-dimethyl-5-oxo-1,3,4,5-tetrahydro-2H-chromeno[3,4-c]pyridine-3-carbonyl)-N-(pyrrolidin-1-ylsulfonyl)benzamide], the IC50 in assay [1] fell in the range of 1 to 10 nM; in the assay with human CD4+ T cells it was 1 to 10 nM; in assay [2] it was 10 to 100 nM. Also, in assay [1], the “MTHFD1/MTHFD2 IC50 ratio” value is reported as “F (<3)”.

As for `COC[C@H]1CN(c2cc(C)c3c4c(c(=O)oc3c2C)CN(C(=O)c2cc(OC3CCCC3)c(C(=O)NS(=O)(=O)N3CCCC3)c(C(F)(F)F)c2)CC4)CCN1C` [Example 129, (R)-2-(cyclopentyloxy)-4-(8-(3-(methoxymethyl)-4-methylpiperazin-1-yl)-7,10-dimethyl-5-oxo-1,3,4,5-tetrahydro-2H-chromeno[3,4-c]pyridine-3-carbonyl)-N-(pyrrolidin-1-ylsulfonyl)-6-(trifluoromethyl)benzamide], the results for the IC50 (in assay [1]; in the assay with human CD4+ T cells; in assay [2]) were 10 to 100 nM, 100 to 1000 nM and 1000 to 5000 nM, respectively. Moreover, in assay [1], the “MTHFD1/MTHFD2 IC50 ratio” value is listed as “J (>30)”.

Regarding `CCOc1cc(C(=O)N2CCc3c(c(=O)oc4c(C)c(N5CCN(C)[C@@H](COC)C5)cc(C)c34)C2)c(F)cc1C(=O)NS(=O)(=O)N1C2CCC1COC2` [Example 221, N-((3-oxa-8-azabicyclo[3.2.1]octan-8-yl)sulfonyl)-2-ethoxy-5-fluoro-4-(8-((R)-3-(methoxymethyl)-4-methylpiperazin-1-yl)-7,10-dimethyl-5-oxo-1,3,4,5-tetrahydro-2H-chromeno[3,4-c]pyridine-3-carbonyl)benzamide], the IC50 in assay [1] is 10 to 100 nM; in the assay with human CD4+ T cells it was 30 to 100 nM; in assay [2], 100 to 1000 nM. Further, the “MTHFD1/MTHFD2 IC50 ratio” value in assay [1] is recorded as “H (>9.0 to 30)”.

As for `COC[C@H]1CN(c2cc(C)c3c4c(c(=O)oc3c2C)CN(C(=O)c2cc(OC)c(C(=O)NS(=O)(=O)N3C5CCC3CC5)cc2F)CC4)CCN1C` [Example 248, (R)-N-((7-azabicyclo[2.2.1]heptan-7-yl)sulfonyl)-5-fluoro-2-methoxy-4-(8-(3-(methoxymethyl)-4-methylpiperazin-1-yl)-7,10-dimethyl-5-oxo-1,3,4,5-tetrahydro-2H-chromeno[3,4-c]pyridine-3-carbonyl)benzamide], the IC50 in assay [1] lay within 1 to 10 nM; in the assay on human CD4+ T cells, 30 to 100 nM; in assay [2], 100 to 1000 nM. Moreover, the “MTHFD1/MTHFD2 IC50 ratio” value in assay [1] is reported as “J (>30)”.

Take `COC[C@H]1CN(c2cc(C)c3c4c(c(=O)oc3c2C)CN(C(=O)c2cc(N(C)C)c(C(=O)NS(=O)(=O)N(C)C3CC3)cc2F)CC4)CCN1C` [Example 257, (R)-N-(N-cyclopropyl-N-methylsulfamoyl)-2-(dimethylamino)-5-fluoro-4-(8-(3-(methoxymethyl)-4-methylpiperazin-1-yl)-7,10-dimethyl-5-oxo-1,3,4,5-tetrahydro-2H-chromeno[3,4-c]pyridine-3-carbonyl)benzamide]: the IC50 in assay [1] was in the range of 1 to 10 nM; in the assay on human CD4+ T cells it was 1 to 10 nM; in assay [2], 100 to 1000 nM. For the same compound, the “MTHFD1/MTHFD2 IC50 ratio” value in assay [1] is “J (>30)”.

In the case of `[2H]C([2H])([2H])Oc1cc(C(=O)N2CCc3c(c(=O)oc4c(C)c(N5CCN(C)[C@@H](COC)C5)cc(C)c34)C2)c(F)cc1C(=O)NS(=O)(=O)N1C2CCC1CC2` [Example 250, (R)-N-((7-azabicyclo[2.2.1]heptan-7-yl)sulfonyl)-5-fluoro-2-(methoxy-d3)-4-(8-(3-(methoxymethyl)-4-methylpiperazin-1-yl)-7,10-dimethyl-5-oxo-1,3,4,5-tetrahydro-2H-chromeno[3,4-c]pyridine-3-carbonyl)benzamide], the IC50 lay in the range of 1 to 10 nM in assay [1], 30 to 100 nM in the assay with human CD4+ T cells and 1000 to 5000 nM in assay [2]. Besides, the “MTHFD1/MTHFD2 IC50 ratio” value in assay [1] is on record as “J (>30)”.

As for `COC[C@H]1CN(c2cc(C)c3c4c(c(=O)oc3c2C)CN(C(=O)c2cc(OC3CC3)c(C(=O)NS(=O)(=O)N3C5CCC3CC5)cc2F)CC4)CCN1C` [Example 331, (R)-N-((7-azabicyclo[2.2.1]heptan-7-yl)sulfonyl)-2-cyclopropoxy-5-fluoro-4-(8-(3-(methoxymethyl)-4-methylpiperazin-1-yl)-7,10-dimethyl-5-oxo-1,3,4,5-tetrahydro-2H-chromeno[3,4-c]pyridine-3-carbonyl)benzamide], the IC50 in assay [1] lay in the range of 1 to 10 nM; in the assay with human CD4+ T cells it was 30 to 100 nM; in assay [2], 100 to 1000 nM. In addition, in assay [1], the “MTHFD1/MTHFD2 IC50 ratio” value is on record as “J (>30)”.

In the case of `COC[C@H]1CN(c2cc(Cl)c3c4c(c(=O)oc3c2C)CN(C(=O)c2cc(OC)c(C(=O)NS(=O)(=O)N3CC5CC5C3)cc2F)CC4)CCN1C` (stereo partly drawn) [Example 325, N-((3-azabicyclo[3.1.0]hexan-3-yl)sulfonyl)-4-(10-chloro-8-((R)-3-(methoxymethyl)-4-methylpiperazin-1-yl)-7-methyl-5-oxo-1,3,4,5-tetrahydro-2H-chromeno[3,4-c]pyridine-3-carbonyl)-5-fluoro-2-methoxybenzamide], the IC50 in assay [1] lay within 1 to 10 nM; in the assay on human CD4+ T cells, 100 to 1000 nM; in assay [2], 100 to 1000 nM. For the same compound, the “MTHFD1/MTHFD2 IC50 ratio” value in assay [1] is “J (>30)”.

With `COC[C@H]1CN(c2cc(Cl)c3c4c(c(=O)oc3c2C)CN(C(=O)c2cc(N(C)C)c(C(=O)NS(=O)(=O)N3CC[C@@H](F)C3)cc2F)CC4)CCN1C` [Example 303, 4-(10-chloro-8-((R)-3-(methoxymethyl)-4-methylpiperazin-1-yl)-7-methyl-5-oxo-1,3,4,5-tetrahydro-2H-chromeno[3,4-c]pyridine-3-carbonyl)-2-(dimethylamino)-5-fluoro-N-(((R)-3-fluoropyrrolidin-1-yl)sulfonyl)benzamide], the IC50 in assay [1] fell in the range of 1 to 10 nM; in the assay on human CD4+ T cells, 10 to 30 nM; in assay [2], 100 to 1000 nM. Besides, the “MTHFD1/MTHFD2 IC50 ratio” value in assay [1] was “J (>30)”.

In the case of `COC[C@H]1CN(c2cc(C)c3c4c(c(=O)oc3c2C)CN(C(=O)c2cc(N(C)C)c(C(=O)NS(=O)(=O)N3CC[C@@H](F)C3)cc2F)CC4)CCN1C` [Example 314, 2-(dimethylamino)-5-fluoro-N-(((R)-3-fluoropyrrolidin-1-yl)sulfonyl)-4-(8-((R)-3-(methoxymethyl)-4-methylpiperazin-1-yl)-7,10-dimethyl-5-oxo-1,3,4,5-tetrahydro-2H-chromeno[3,4-c]pyridine-3-carbonyl)benzamide], the IC50 in assay [1] lay in the range of 1 to 10 nM; in the assay with human CD4+ T cells, 1 to 10 nM; in assay [2], 100 to 1000 nM. In assay [1], the “MTHFD1/MTHFD2 IC50 ratio” value is recorded as “H (>9.0 to 30)”.

Take `CCOc1cc(C(=O)N2CCc3c(c(=O)oc4c(C)c(N5CCN(C)[C@@H](COC)C5)cc(Cl)c34)C2)c(F)cc1C(=O)NS(=O)(=O)N1CCCC1` [Example 259, (R)-4-(10-chloro-8-(3-(methoxymethyl)-4-methylpiperazin-1-yl)-7-methyl-5-oxo-1,3,4,5-tetrahydro-2H-chromeno[3,4-c]pyridine-3-carbonyl)-2-ethoxy-5-fluoro-N-(pyrrolidin-1-ylsulfonyl)benzamide]: the IC50 is 1 to 10 nM in assay [1], 30 to 100 nM with human CD4+ T cells and 100 to 1000 nM in assay [2]. For the same compound, in assay [1], the “MTHFD1/MTHFD2 IC50 ratio” value is recorded as “J (>30)”.
